The NIST ThermoML archive (doi:10.1016/j.jct.2015.08.014)

Experiment: xn = mol fraction of the nth substance listed
Settings: 100 kPa, Liquid; for electrical conductivity: Alternating current cell with electrodes; for mass density: Vibrating tube method; for viscosity: Capillary tube (Ostwald / Ubbelohde) method

CCCC[N+]1(C)CCCC1.N#CN=C=[N-] [1-butyl-1-methylpyrrolidinium dicyanamide] + O=C1CCCO1
Settings	electrical conductivity [S/m]
313.15 K, Frequency=0.00694444 MHz, x1 = 0.4985	2.88
313.15 K, Frequency=0.00694444 MHz, x1 = 0.6954	2.43
313.15 K, Frequency=0.00694444 MHz, x1 = 0.9013	2.09
313.15 K, Frequency=0.00694444 MHz, x1 = 1	2
313.15 K, Frequency=0.0075 MHz, x1 = 0.0463	1.79
313.15 K, Frequency=0.0075 MHz, x1 = 0.0987	2.73
313.15 K, Frequency=0.0075 MHz, x1 = 0.1449	3.13
313.15 K, Frequency=0.0075 MHz, x1 = 0.1859	3.37
313.15 K, Frequency=0.0075 MHz, x1 = 0.2493	3.36
313.15 K, Frequency=0.0075 MHz, x1 = 0.3029	3.321
313.15 K, Frequency=0.0075 MHz, x1 = 0.3845	3.16
313.15 K, Frequency=0.0075 MHz, x1 = 0.4985	2.88
313.15 K, Frequency=0.0075 MHz, x1 = 0.6954	2.43
313.15 K, Frequency=0.0075 MHz, x1 = 0.9013	2.09
313.15 K, Frequency=0.0075 MHz, x1 = 1	2
313.15 K, Frequency=0.008 MHz, x1 = 0.0463	1.79
313.15 K, Frequency=0.008 MHz, x1 = 0.0987	2.73
313.15 K, Frequency=0.008 MHz, x1 = 0.1449	3.13
313.15 K, Frequency=0.008 MHz, x1 = 0.1859	3.37
313.15 K, Frequency=0.008 MHz, x1 = 0.2493	3.36
313.15 K, Frequency=0.008 MHz, x1 = 0.3029	3.321
313.15 K, Frequency=0.008 MHz, x1 = 0.3845	3.16
313.15 K, Frequency=0.008 MHz, x1 = 0.4985	2.88
313.15 K, Frequency=0.008 MHz, x1 = 0.6954	2.43
313.15 K, Frequency=0.008 MHz, x1 = 0.9013	2.09
313.15 K, Frequency=0.008 MHz, x1 = 1	2
313.15 K, Frequency=0.00857143 MHz, x1 = 0.0463	1.79
313.15 K, Frequency=0.00857143 MHz, x1 = 0.0987	2.73
313.15 K, Frequency=0.00857143 MHz, x1 = 0.1449	3.13
313.15 K, Frequency=0.00857143 MHz, x1 = 0.1859	3.37
313.15 K, Frequency=0.00857143 MHz, x1 = 0.2493	3.36
313.15 K, Frequency=0.00857143 MHz, x1 = 0.3029	3.321
313.15 K, Frequency=0.00857143 MHz, x1 = 0.3845	3.16
313.15 K, Frequency=0.00857143 MHz, x1 = 0.4985	2.88
313.15 K, Frequency=0.00857143 MHz, x1 = 0.6954	2.43
313.15 K, Frequency=0.00857143 MHz, x1 = 0.9013	2.09
313.15 K, Frequency=0.00857143 MHz, x1 = 1	2
313.15 K, Frequency=0.00892857 MHz, x1 = 0.0463	1.79
313.15 K, Frequency=0.00892857 MHz, x1 = 0.0987	2.73
313.15 K, Frequency=0.00892857 MHz, x1 = 0.1449	3.13
313.15 K, Frequency=0.00892857 MHz, x1 = 0.1859	3.37
313.15 K, Frequency=0.00892857 MHz, x1 = 0.2493	3.36
313.15 K, Frequency=0.00892857 MHz, x1 = 0.3029	3.321
313.15 K, Frequency=0.00892857 MHz, x1 = 0.3845	3.16
313.15 K, Frequency=0.00892857 MHz, x1 = 0.4985	2.88
313.15 K, Frequency=0.00892857 MHz, x1 = 0.6954	2.43
313.15 K, Frequency=0.00892857 MHz, x1 = 0.9013	2.09
313.15 K, Frequency=0.00892857 MHz, x1 = 1	2
313.15 K, Frequency=0.00961538 MHz, x1 = 0.0463	1.79
313.15 K, Frequency=0.00961538 MHz, x1 = 0.0987	2.73
313.15 K, Frequency=0.00961538 MHz, x1 = 0.1449	3.13
313.15 K, Frequency=0.00961538 MHz, x1 = 0.1859	3.37
313.15 K, Frequency=0.00961538 MHz, x1 = 0.2493	3.36
313.15 K, Frequency=0.00961538 MHz, x1 = 0.3029	3.322
313.15 K, Frequency=0.00961538 MHz, x1 = 0.3845	3.16
313.15 K, Frequency=0.00961538 MHz, x1 = 0.4985	2.88
313.15 K, Frequency=0.00961538 MHz, x1 = 0.6954	2.43
313.15 K, Frequency=0.00961538 MHz, x1 = 0.9013	2.09
313.15 K, Frequency=0.00961538 MHz, x1 = 1	2
313.15 K, Frequency=0.01 MHz, x1 = 0.0463	1.79
313.15 K, Frequency=0.01 MHz, x1 = 0.0987	2.73
313.15 K, Frequency=0.01 MHz, x1 = 0.1449	3.13
313.15 K, Frequency=0.01 MHz, x1 = 0.1859	3.37
313.15 K, Frequency=0.01 MHz, x1 = 0.2493	3.36
313.15 K, Frequency=0.01 MHz, x1 = 0.3029	3.322
313.15 K, Frequency=0.01 MHz, x1 = 0.3845	3.16
313.15 K, Frequency=0.01 MHz, x1 = 0.4985	2.88
313.15 K, Frequency=0.01 MHz, x1 = 0.6954	2.43
313.15 K, Frequency=0.01 MHz, x1 = 0.9013	2.09
313.15 K, Frequency=0.01 MHz, x1 = 1	2
323.15 K, Frequency=0.0005 MHz, x1 = 0.0463	1.99
323.15 K, Frequency=0.0005 MHz, x1 = 0.0987	3.06
323.15 K, Frequency=0.0005 MHz, x1 = 0.1449	3.56
323.15 K, Frequency=0.0005 MHz, x1 = 0.1859	3.816
323.15 K, Frequency=0.0005 MHz, x1 = 0.2493	3.88
323.15 K, Frequency=0.0005 MHz, x1 = 0.3029	3.85
323.15 K, Frequency=0.0005 MHz, x1 = 0.3845	3.726
323.15 K, Frequency=0.0005 MHz, x1 = 0.4985	3.45
323.15 K, Frequency=0.0005 MHz, x1 = 0.6954	2.99
323.15 K, Frequency=0.0005 MHz, x1 = 0.9013	2.622
323.15 K, Frequency=0.0005 MHz, x1 = 1	2.525
323.15 K, Frequency=0.001 MHz, x1 = 0.0463	2

Settings	electrical conductivity, 323.15 K [S/m]	mass density, 313.15 K [kg/m3]	viscosity, 323.15 K [mPa·s]
x1 = 0.0463	2.01	–	–
x1 = 0.0987	3.08	1090.51	1.87
x1 = 0.1449	3.57	–	–
x1 = 0.1859	3.85	1075.67	2.58
x1 = 0.2493	3.89	–	–
x1 = 0.3029	3.88	1059.04	3.77
x1 = 0.3845	3.74	–	–
x1 = 0.4985	3.46	1037.83	6.36
x1 = 0.6954	2.99	1022.16	9.69
x1 = 0.9013	2.633	1009.87	13.92
x1 = 1	2.529	1005.06	16.15
